Assay results reported in patent US20060134124A1, “Immunosuppression” (ML Laboratories PLC, priority 1998, published 2006).

How the values were obtained:
[1] = test system: T cell proliferation; assay: T cell proliferation response to whole ovalbumin or OVA 323-339 peptide after immunisation with whole ovalbumin; format: in vivo, C57BL-6 mice; conditions: following immunisation with whole ovalbumin; FIG. 13
Excerpt: FIG. 13 represents a comparison of T cell proliferation response to whole ovalbumen or the ovalbumen peptide Ova323-339;
The peptide sequences and amino acid positions for peptides 1-10 relate to the position of the B7-2 peptide sequence within porcine B7-2. The amino acid position for the ova sequence is only indicated for the Ova peptide. A 17 amino acid peptide from chicken egg albumin (ovalbumin) was selected as the T cell epitope, OVA323-339 (ISQAVHAAHAEINEAGR). This epitope was selected on the basis of published reports for the generation of a H-2^b restricted T cell response (76, 77). […] Peptides were generated on a peptide synthesiser (Genosys) and crude peptides were purified by HPLC to greater than 70% purity.

[2] = test system: native porcine B7-2 molecule expressed on the surface of porcine B7-2 transfected P815 cells; assay: Flow cytometry of immunised-mouse sera on poB7-2 transfected P815 cells; format: binding; conditions: for recognition (staining) of porcine B7-2 transfected P815 cells by sera: sera of mice immunised with single peptide, FIGS. 17a and 17b
Excerpt: (II) Transfected P815 cells are crucial reagents for the detection of porcine anti-B7-2 antibody in the sera of immunised mice which have undergone the chimeric peptide immunisation regimen. Flow cytometric analysis with control or poB7-2-transfected P815 cells, reflects the specificity of sera for B7-2.
(§1) Peptide ELISAs are used to screen for the presence of anti-peptide antibody in the sera. Peptides are coated to plates by virtue of aldehyde linkages to allow free access of Ab to the peptide (78), Plates are coated with individual peptides or the ova control peptide to enable the identification of specific peptides of interest. To detect reactivity of sera with the native B7-2 molecule expressed on the surface of PoB7-2 transfected P815 cells, flow cytometry is performed following surface staining. Having identified CS peptide of interest (peptide ELISA positive and recognising native B7-2) the sera is used to inhibit in vitro T cell proliferative responses. This determines whether the antibody is a blocking antibody.
(§2) Immunisations involved two groups of mice, one received a pool of all nine B7-2 peptides, and one receiving ova control peptide. The harvested sera were screened by peptide ELISA (FIG. 14a or 14b) which enabled the identification of peptides of interest. […] Peptide 4 and 6 were selected as candidate peptides and used in subsequent immunisation protocol. […] Similar protocols will be followed with peptide 2.

[3] = test system: direct mouse anti porcine T cell responses; assay: Inhibition of in vitro T cell proliferative responses by peptide sera; format: cell-based; conditions: FIG. 15b
Experimental: as §1

[4] = target: T1, murine CD86 (Mus musculus, UniProt P42082); assay: Inhibition of costimulation by murine CD86 by peptide sera; format: cell-based; conditions: FIG. 15b
T1 sequence (P42082 24-309): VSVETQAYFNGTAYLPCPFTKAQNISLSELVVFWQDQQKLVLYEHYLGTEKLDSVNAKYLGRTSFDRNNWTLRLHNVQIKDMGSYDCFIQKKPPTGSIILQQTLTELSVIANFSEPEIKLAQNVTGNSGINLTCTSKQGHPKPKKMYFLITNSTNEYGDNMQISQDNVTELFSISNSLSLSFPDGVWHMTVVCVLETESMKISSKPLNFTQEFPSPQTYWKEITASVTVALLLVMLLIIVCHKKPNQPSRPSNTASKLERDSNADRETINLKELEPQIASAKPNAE

[5] = test system: porcine B7-2 peptides; assay: Peptide ELISA of sera from mice immunised with OVA-B7-2 chimeric peptides; format: in vivo, C57BL-6 mice; conditions: for level of peptide-specific IgG in the sera of immunised mice: immunisation with peptide 4 or 6, FIGS. 15a and 15b; for binding of antisera to B7 peptide versus ova control by peptide ELISA: sera of mice that received a pool of all nine B7-2 peptides, FIG. 14a or 14b
Excerpt: C57BL-6 mice are immunised with whole ovalbumin in CFA, followed by either control peptide (OVA peptide) or CS peptides (OVA-B7-2 constructs) for three weekly immunisations. Blood is collected following sacrifice and sera prepared using a standard technique. Presence of specific mouse anti-porcine B7-2 IgG and/or IgM Ab is detected by one of two strategies.
as §1, §2

Substance | proliferative response of C57BL-6 mice (H-2b haplotype) [1] | recognition (staining) of porcine B7-2 transfected P815 cells by sera [2] | staining of untransfected control P815 cells by sera [2] | inhibition of direct mouse anti porcine T cell responses by sera [3] | inhibition of costimulation by murine CD86 by sera [4] | level of peptide-specific IgG in the sera of immunised mice [5] | binding of antisera to B7 peptide versus ova control by peptide ELISA [5] | specificity of the sera for the peptide versus ova control ([5]; peptide ELISA, FIG. 16)
ISQAVHAAHAEINEAGR [Ova Peptide, control peptide, reference compound] | mount a proliferative response | do not stain | do not stain |  |  |  |  | 
ISQAVHAAHAEINEAGRCSSTQGYPEPQR [Peptide 6] |  | specifically recognise the native porcine B7-2 molecule | do not stain | inhibition of direct mouse anti porcine T cell responses | no inhibition | significant level of IgG | preferential binding to B7 peptide than to ova control | 
ISQAVHAAHAEINEAGRGLVPIHQMS [Peptide 4] |  | specifically recognise the native porcine B7-2 molecule | do not stain | inhibition of direct mouse anti porcine T cell responses | no inhibition | significant level of IgG | preferential binding to B7 peptide than to ova control | specificity of the sera for peptide 4 and not to ova control
ISQAVHAAHAEINEAGRLPCHFTNSQ [Peptide 2] |  |  |  |  |  |  | preferential binding to B7 peptide than to ova control | 
ovalbumin [chicken egg albumin used whole for priming immunisation] | mount a proliferative response |  |  |  |  |  |  | 
